Key:
[1] = test system: methicillin-resistant S. aureus (MRSA, USA300 JE2); test: MIC / growth inhibition assay (end-point OD600), single agent; type: cell-based, Staphylococcus aureus; conditions: for fold less potent against JE2 compared to SH1000: ratio of single-agent EC50 values
Description: (§1) Minimum inhibitory concentration (MIC) assays were used to evaluate the antimicrobial activity of compounds against Gram-negative (E. coli) and Gram-positive (S. aureus) bacteria. […] Gram-positive bacteria are more susceptible to small-molecule penetration, and compounds were therefore assessed for growth inhibition against the S. aureus SH1000 strain.
Methicillin-resistant S. aureus (MRSA) is a multi-drug resistant bacterium responsible for a large number of nosocomial infections.[34] The emergence of community associated (CA)-MRSA capable of infection of healthy individuals highlights its significance and clinical relevance.[35]
(§2) 2.1. Biological and biochemical methods
(§3) Bacterial strains and culture conditions
(§4) Strains utilized in the present study are detailed in Table S1. All strains used were cultivated on Mueller Hinton Agar (MHA) and grown to stationary-phase in Mueller Hinton Broth (MHB) at 37 °C for 16 h, with shaking at 180 r.p.m.
(§5) Minimum inhibitory concentration (MIC) assays
(§6) MIC assays were performed in 96 well plates and MICs were determined in accordance with the broth microdilution protocol.4 Strains grown to stationary-phase in MHB were adjusted to 5 x 10^5 colony-forming units (CFU)/mL in fresh MHB (100 µL/well) supplemented with DMSO to ensure a constant concentration of 0.5% (v/v) DMSO across all experiments. Where […]
(§7) or H2O2 (200 μM). Test compounds were prepared as two-fold serial dilutions. Cells were […]
(§8) as the lowest concentration with no visible bacterial growth, and the optical density at 600 nm (OD600) was recorded. OD600 measurements were background corrected against no-inocula control and normalized to DMSO control for dose-response analysis. The EC50 value mean and SEM were calculated from individual EC50 values from three biological replicates. […]

[2] = test system: E. coli K-12 BW25113; test: as above; type: cell-based, Escherichia coli; conditions: for EC50: Escherichia coli, BW25113, end-point OD600 after 18 h, read-out: EC50 E. coli (K12 BW25113) Compound only
Description: as §1, §2, §3, §4, §5, §6, §7, §8

[3] = test system: S. aureus SH1000; test: as above; type: cell-based; conditions: Staphylococcus aureus, SH1000, 18 h, end-point OD600 after 18 h, read-out: EC50 S. aureus (SH1000) Compound only
Description: as §1, §2, §3, §4, §5, §6, §7, §8

[4] = test system: methicillin-resistant S. aureus (MRSA, USA300 JE2); test: Ciprofloxacin (CFX) potentiation in MRSA growth inhibition assay; type: cell-based, Staphylococcus aureus; conditions: for EC50: read-out: EC50 S. aureus (USA300 JE2) Compound + CFX (9.4 μM), in presence of half-MIC CFX (9.4 μM); for fold increase in potency of para- over meta-substituted analogue, potentiation by CFX: JE2 + CFX, 4 vs 1, 10 vs 7, 14 vs 13
Experimental: as §2, §3, §4, §5, §6, §7, §8

[5] = test system: MRSA (USA300 JE2); test: Growth inhibition in the presence of H2O2; type: cell-based, Staphylococcus aureus; conditions: read-out: EC50 Compound + H2O2 (200 µM); MRSA USA300 JE2, H2O2 200 µM
Experimental: (§9) The analogue panel was further tested for potentiation of alternative DNA-damaging agents Mitomycin-C (MMC) and hydrogen peroxide (Table S2), which function via alkylation and oxidization DNA bases, respectively.
as §2, §3, §4, §5, §6, §7, §8

[6] = test system: MRSA (USA300 JE2); test: Growth inhibition in the presence of mitomycin-C; type: cell-based, Staphylococcus aureus; conditions: read-out: EC50 Compound + MMC (0.40 µM); MRSA USA300 JE2, mitomycin-C 0.40 µM
Experimental: as §9, §2, §3, §4, §5, §6, §7, §8

[7] = biological target: T1, E. coli topoisomerase IV (Escherichia coli, UniProt P0AFI2+P20083); test: Topoisomerase IV supercoiling relaxation assay (pQE80L); type: biochemical; conditions: at 12.5 µM (compounds)
T1 construct: purchased Inspiralis
Experimental: 2.1. Biological and biochemical methods […]
E. coli DNA gyrase supercoiling assay (Inspiralis) was performed according to the manufacturer’s instructions, ensuring a constant concentration of 1% (v/v) DMSO. Samples were separated on a 1% (w/v) agarose gel prepared with Tris/Borate/EDTA (TBE) buffer (1 M Tris-borate, 20 mM EDTA, pH 8.0). Electrophoresis was performed at 100 V until the bromophenol blue dye had run >6 cm to ensure resolution of relaxed and supercoiled DNA.
The gel was stained with SYBR Safe DNA gel stain (Invitrogen, 1:10,000 dilution in TBE) for 30 min, and visualized on a Syngene Gel Doc system. Band intensity was quantified using ImageJ software and the fraction of supercoiled plasmid was determined as the ratio of the density of the supercoiled band to the total density. Values were background corrected against the no-gyrase control and normalized to DMSO control for dose-response analysis.
E. coli topoisomerase IV supercoiling relaxation assay (Inspiralis) was performed according to the manufacturer’s instructions, ensuring a constant concentration of 1% (v/v) DMSO.
Supercoiled pQE80L was prepared via plasmid purification and used as the substrate for the reaction. Reactions were analyzed as described for DNA gyrase assays. […]

[8] = test system: JE2; test: Synergy experiments with CFX (growth rate method, Chou-Talalay, CompuSyn); type: cell-based, Staphylococcus aureus; conditions: for Combination index (CI) with CFX: JE2, constant-ratio combination with CFX, CompuSyn; for EC50: Staphylococcus aureus, JE2, rate of exponential growth phase over 17 h at 37 °C
Experimental: A more precise method to determine EC50 values for individual compounds and combinations was used to increase accuracy for CI calculations. […]
Synergy experiments were performed as described for MIC assays. Two-fold serial dilutions […]
carried out at 37 °C, with shaking at 220 r.p.m. OD600 was recorded every 30 min over a 17 h period. Measurements were background corrected against the no-inocula control before a growth curve of OD600 against time was constructed. The gradient of the exponential phase was obtained by linear regression. Gradients were normalized against the smallest and largest value within the respective data set prior to analysis with the CompuSyn software (http://www.combosyn.com/) to calculate combination index (CI) and dose-reduction index (DRI) values for each drug combination. […]

[9] = Staphylococcus aureus, 18 h, read-out: EC50 S. aureus (USA300 JE2) Compound only, single agent, end-point OD600 after 18 h

T1 sequence (P0AFI2 whole entry): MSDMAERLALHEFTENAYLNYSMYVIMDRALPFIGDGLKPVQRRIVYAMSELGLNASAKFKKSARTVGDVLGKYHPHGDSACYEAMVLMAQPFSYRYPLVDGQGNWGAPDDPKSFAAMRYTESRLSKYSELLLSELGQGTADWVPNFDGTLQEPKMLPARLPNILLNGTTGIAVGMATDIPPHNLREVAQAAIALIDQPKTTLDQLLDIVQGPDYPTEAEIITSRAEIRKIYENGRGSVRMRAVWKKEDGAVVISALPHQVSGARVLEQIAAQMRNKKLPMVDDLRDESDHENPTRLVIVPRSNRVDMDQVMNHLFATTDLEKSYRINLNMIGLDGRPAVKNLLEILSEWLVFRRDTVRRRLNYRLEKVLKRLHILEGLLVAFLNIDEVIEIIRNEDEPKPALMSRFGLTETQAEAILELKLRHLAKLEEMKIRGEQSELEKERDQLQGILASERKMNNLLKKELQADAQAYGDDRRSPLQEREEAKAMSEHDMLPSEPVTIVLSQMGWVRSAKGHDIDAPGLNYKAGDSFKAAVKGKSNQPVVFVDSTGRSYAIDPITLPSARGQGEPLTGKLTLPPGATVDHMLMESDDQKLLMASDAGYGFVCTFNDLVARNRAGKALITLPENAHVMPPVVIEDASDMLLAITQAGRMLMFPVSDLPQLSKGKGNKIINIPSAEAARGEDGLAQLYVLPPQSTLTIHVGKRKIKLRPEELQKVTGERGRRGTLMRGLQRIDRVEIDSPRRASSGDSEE
T1 sequence (P20083 whole entry): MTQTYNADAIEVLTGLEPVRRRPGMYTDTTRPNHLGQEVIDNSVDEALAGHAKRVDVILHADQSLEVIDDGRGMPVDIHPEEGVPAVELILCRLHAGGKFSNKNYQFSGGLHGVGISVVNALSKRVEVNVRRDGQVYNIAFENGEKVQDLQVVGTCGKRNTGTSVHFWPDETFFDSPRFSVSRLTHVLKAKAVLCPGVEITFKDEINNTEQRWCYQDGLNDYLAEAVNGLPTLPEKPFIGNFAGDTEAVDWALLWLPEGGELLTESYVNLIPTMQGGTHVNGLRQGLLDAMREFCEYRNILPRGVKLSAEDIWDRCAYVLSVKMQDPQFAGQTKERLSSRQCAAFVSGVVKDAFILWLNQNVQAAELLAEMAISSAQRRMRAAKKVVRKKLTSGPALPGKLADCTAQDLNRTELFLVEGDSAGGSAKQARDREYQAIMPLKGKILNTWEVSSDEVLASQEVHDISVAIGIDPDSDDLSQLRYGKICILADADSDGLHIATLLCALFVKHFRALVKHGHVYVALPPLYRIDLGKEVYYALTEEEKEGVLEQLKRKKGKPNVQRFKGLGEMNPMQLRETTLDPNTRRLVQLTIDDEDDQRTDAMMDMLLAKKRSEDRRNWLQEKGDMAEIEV

| Structure (SMILES) | EC50 [1, 9] | EC50 [2] | EC50 [3] | EC50 [4] | EC50 [5] | EC50 [6] | further results |
| --- | --- | --- | --- | --- | --- | --- | --- |
| O=C(O)c1cn(C2CC2)c2cc(N3CCC(NC(=S)Nc4ccc(C(F)(F)F)cc4)C3)c(F)cc2c1=O (centres unmarked) [Compound 17] | 53000 ± 13000 nM | 2800 ± 400 nM | 1600 ± 400 nM | 3200 ± 300 nM |  |  |  |
| O=C(O)c1cn(C2CC2)c2cc(N3CCN(C(=S)Nc4ccc([N+](=O)[O-])cc4)CC3)c(F)cc2c1=O [Compound 14] | > 12500 nM | 260 ± 40 nM | 50 ± 8 nM | 49 ± 6 nM |  |  | fold increase in potency of para- over meta-substituted analogue, potentiation by CFX [4]: ~10 fold |
| CCn1cc(C(=O)O)c(=O)c2cnc(N3CCN(C(=S)Nc4cccc(F)c4)CC3)nc21 [Compound 2] | 27000 ± 400 nM | > 100000 nM | 6900 ± 400 nM | 730 ± 120 nM | 24000 ± 3000 nM | 21000 ± 2200 nM |  |
| CCn1cc(C(=O)O)c(=O)c2cnc(N3CCN(C(=S)Nc4cc(Cl)cc(Cl)c4)CC3)nc21 [Compound 6] | 1800 ± 100 nM | > 100000 nM | 2300 ± 300 nM | 120 ± 40 nM | 2500 ± 400 nM | 1500 nM |  |
| O=C(O)c1cn(C2CC2)c2cc(N3CCN(C(=S)Nc4cccc(C(F)(F)F)c4)CC3)c(F)cc2c1=O [Compound 7] | 3700 ± 500 nM | 410 nM | 190 ± 60 nM | 140 nM | 5500 ± 600 nM | 2800 ± 400 nM | fold less potent against JE2 compared to SH1000 [1]: > 20 fold |
| CC(C)(C)OC(=O)NCCNC(=O)c1cn(C2CC2)c2cc(N3CCN(C(=S)Nc4ccc(C(F)(F)F)cc4)CC3)c(F)cc2c1=O [Compound 19] | > 100000 nM | > 100000 nM | > 100000 nM |  |  |  |  |
| OO [Compound H2O2, hydrogen peroxide, reference compound] |  |  |  |  |  |  | EC50 ([1]; single agent, end-point OD600 after 18 h, read-out: EC50 S. aureus (USA300 JE2) Compound only): 147000 ± 11000 nM |
| CCn1cc(C(=O)O)c(=O)c2cnc(N3CCN(C(=S)Nc4cccc(C(F)(F)F)c4)CC3)nc21 [Compound 1, reference compound] | 6900 ± 600 nM | > 100000 nM | 8200 ± 1700 nM | 1100 ± 100 nM | 6500 ± 100 nM | 3300 ± 600 nM | Inhibition of topoisomerase IV [7]: not inhibited and not; Combination index (CI) with CFX [8]: 1.0; EC50 [8]: 5900 ± 200 nM |
| CO[C@@]12[C@H](COC(N)=O)C3=C(C(=O)C(C)=C(N)C3=O)N1C[C@@H]1N[C@@H]12 [MMC, Mitomycin-C, reference compound] | 330 ± 10 nM |  |  |  |  |  |  |
| CCn1cc(C(=O)O)c(=O)c2cnc(N3CCN(C(=S)Nc4ccc(C(F)(F)F)cc4)CC3)nc21 [Compound 4] | 4000 ± 300 nM | > 100000 nM | 5200 ± 1100 nM | 240 ± 30 nM | 4700 ± 900 nM | 2900 ± 200 nM | fold increase in potency of para- over meta-substituted analogue, potentiation by CFX [4]: ~5 fold |
| CCn1cc(C(=O)O)c(=O)c2cnc(N3CCN(C(=O)Nc4ccccc4)CC3)nc21 [Compound 15] |  | > 12500 nM | > 12500 nM | > 12500 nM |  |  | EC50 ([1]; Staphylococcus aureus, single agent, end-point OD600 after 18 h, read-out: EC50 S. aureus (USA300 JE2) Compound only): > 12500 nM; Effect of the presence of CFX on potency ([4]; JE2, CFX 9.4 µM): unaffected; Inhibition of topoisomerase IV [7]: not inhibited and not |
| O=C(O)c1cn(C2CC2)c2cc(N3CCN(C(=S)Nc4cc(Cl)cc(Cl)c4)CC3)c(F)cc2c1=O [Compound 12] | 3600 ± 400 nM | 420 ± 20 nM | 84 ± 7 nM | 43 ± 11 nM | 2900 ± 800 nM | 800 nM | fold less potent against JE2 compared to SH1000 [1]: > 20 fold |
| CC1CN(c2cc3c(cc2F)c(=O)c(C(=O)O)cn3C2CC2)CCN1C(=S)Nc1ccc(C(F)(F)F)cc1 (centres unmarked) [Compound 16] | 3900 ± 400 nM | 300 ± 60 nM | 260 ± 40 nM | 18 ± 3 nM |  |  |  |
| O=C(O)c1cn(C2CC2)c2cc(N3CCN(C(=S)Nc4cccc([N+](=O)[O-])c4)CC3)c(F)cc2c1=O [Compound 13] | > 25000 nM | 270 ± 20 nM | 110 ± 30 nM | 430 ± 90 nM |  |  |  |
| O=C(O)c1cn(C2CC2)c2cc(N3CCN(C(=S)Nc4cc(C(F)(F)F)cc(C(F)(F)F)c4)CC3)c(F)cc2c1=O [Compound 9] | 3500 ± 400 nM | 390 ± 10 nM | 1500 ± 300 nM | 470 ± 70 nM | 2600 ± 300 nM | 1800 ± 300 nM | fold more potent against E. coli than SH1000 [2]: ~5 fold |
| O=C(O)c1cn(C2CC2)c2cc(N3CCN(C(=S)Nc4cccc(Cl)c4)CC3)c(F)cc2c1=O [Compound 11] | 2800 ± 100 nM | 460 ± 100 nM | 120 ± 40 nM | 84 ± 7 nM | 3200 nM | 2200 ± 600 nM | fold less potent against JE2 compared to SH1000 [1]: > 20 fold |
| NCCNC(=O)c1cn(C2CC2)c2cc(N3CCN(C(=S)Nc4ccc(C(F)(F)F)cc4)CC3)c(F)cc2c1=O [Compound 20] | 78000 ± 8000 nM | 47000 ± 1000 nM | 76000 ± 5000 nM |  |  |  |  |
| O=C(O)c1cn(C2CC2)c2cc(NCCNC(=S)Nc3ccc(C(F)(F)F)cc3)c(F)cc2c1=O [Compound 18] | 9700 ± 1000 nM | > 100000 nM | 7700 ± 1200 nM | 2500 ± 300 nM |  |  |  |
| CCn1cc(C(=O)O)c(=O)c2cnc(N3CCN(C(=S)Nc4cc(C(F)(F)F)cc(C(F)(F)F)c4)CC3)nc21 [Compound 3] | 2700 ± 600 nM | > 100000 nM | 3600 ± 400 nM | 620 ± 90 nM | 2400 ± 200 nM | 1500 ± 100 nM |  |
| O=C(O)c1cn(C2CC2)c2cc(N3CCN(C(=S)Nc4cccc(F)c4)CC3)c(F)cc2c1=O [Compound 8] | 4800 ± 900 nM | 240 ± 30 nM | 80 ± 10 nM | 220 ± 50 nM | 4600 ± 400 nM | 3400 ± 900 nM | fold less potent against JE2 compared to SH1000 [1]: > 20 fold; fold higher potency than other CFX derivatives in E. coli [2]: approximately 2 fold |
| CCn1cc(C(=O)O)c(=O)c2cnc(N3CCN(C(=S)Nc4cccc(Cl)c4)CC3)nc21 [Compound 5] | ~6000 nM | > 100000 nM | ~6000 nM | 310 ± 20 nM | 8400 ± 200 nM | 4500 ± 1200 nM | EC50 ([1]; read-out: EC50 S. aureus (USA300 JE2) Compound only, single agent, end-point OD600 after 18 h): 6900 ± 100 nM; fold increase in potency against JE2 in the presence of CFX compared to single agent ([4]; CFX 9.4 µM): ~20 fold; Inhibition of topoisomerase IV [7]: not; Combination index (CI) with CFX [8]: 0.96; EC50 [8]: 6200 ± 100 nM |

— publication PMC6892255, “Identification of a potent small-molecule inhibitor of bacterial DNA repair that potentiates quinolone antibiotic activity in methicillin-resistant Staphylococcus aureus^” (Bioorganic & Medicinal Chemistry, 2019)
